Experimental data reported in patent US6624182B1, “Hydroxyphenylvinylthiazoles” (Ciba Specialty Chemicals Corporation, priority 1999, dated 2003).

What was measured:
Assay in all cases: Determination of the minimum inhibitory concentration (MIC value) in microtitre plates
C. albicans = assay type: cell-based, Candida albicans ATCC 10231; conditions: optical density at 620 nm, 48 hours at 37° C., MIC = ≦20% growth; tested at 100; 10 and 1 ppm (approximate values); (2), (3), (4) at 120; 60; 30; 15; 7.5; 3.75 ppm
Protocol: (§1) Determination of the Minimum Inhibitory Concentration (MIC Value) in Microtitre Plates Nutrient Medium Casein/soybean flour/peptone bouillon for the preparation of preliminary cultures of the test bacteria and yeast. Mycological slant agar for the preliminary culture of moulds Examples of Test Microbes: Yeast: Candida albicans ATCC 10231 Procedure: The test substances are pre-dissolved in dimethyl sulfoxide (DMSO) and tested in a series of dilutions of 1:2. Bacteria and yeast are cultured overnight in CASO bouillon; the mould is cultured on myco-logical slant agar and sponged off with 10 ml of 0.85% sodium chloride solution (+0.1% Triton X-100). All the test microbes are adjusted to a germ count of 1−5×10^6 KBE/ml using 0.85% sodium chloride solution. The test substances are pre-pipetted into microtitre plates in an amount of 8 μl per well. Pre-diluted microbe suspensions are diluted 1:100 in CASO bouillon (bacteria and yeast) or Sabouraud 2% glucose bouillon (mould) and added to the test substances in an amount of 192 μl per well. The test batches are incubated for 48 hours at 37° C. (bacteria and yeast) or for 5 days at 28° C. (mould). After incubation, the growth is determined by means of the clouding of the test batches (optical density) at 620 nm in a microplate reader. The concentration of substance at which (compared with the growth control) a marked inhibition of growth (≦20% growth) of the test microbes can be observed is given as the minimum inhibitory concentration (MIC value). One microtitre plate is used per test microbe and substance concentration. All substances are tested in duplicate.

A. niger = assay type: cell-based, Aspergillus niger ATCC 6275; conditions: optical density at 620 nm, 5 days at 28° C., MIC = ≦20% growth; tested at 100; 10 and 1 ppm (approximate values); (2), (3), (4) at 120; 60; 30; 15; 7.5; 3.75 ppm
Protocol: as §1, with “Mould: Aspergillus niger” for “Yeast: Candida albicans”, “6275” for “10231”

S. aureus = assay type: cell-based; conditions: optical density at 620 nm, 48 hours at 37° C., MIC = ≦20% growth; tested at 100; 10 and 1 ppm (approximate values); (2), (3), (4) at 120; 60; 30; 15; 7.5; 3.75 ppm
Description: as §1, with “Bacteria: Staphylococcus hominis DMS 20328” for “Yeast: Candida albicans ATCC 10231”

E. coli = assay type: cell-based, Escherichia coli NCTC 8196; conditions: optical density at 620 nm, 48 hours at 37° C., MIC = ≦20% growth; tested at 100; 10 and 1 ppm (approximate values); (2), (3), (4) at 120; 60; 30; 15; 7.5; 3.75 ppm
Protocol: as §1, with “Bacteria: Escherichia coli NCTC 8196” for “Yeast: Candida albicans ATCC 10231”

P. aeruginosa = assay type: cell-based, Pseudomonas aeruginosa CIP A-22; conditions: optical density at 620 nm, 48 hours at 37° C., MIC = ≦20% growth; tested at 100; 10 and 1 ppm (approximate values); (2), (3), (4) at 120; 60; 30; 15; 7.5; 3.75 ppm
Protocol: as §1, with “Bacteria: Pseudomonas aeruginosa CIP A-22” for “Yeast: Candida albicans ATCC 10231”

Compound | MIC values in ppm C. albicans (C. albicans) [ppm] | MIC values in ppm A. niger (A. niger) [ppm] | MIC values in ppm S. aureus (S. aureus) [ppm] | MIC values in ppm E. coli (E. coli) [ppm] | MIC values in ppm P. aeruginosa (P. aeruginosa) [ppm]
Oc1cc(OCc2ccccc2)ccc1/C=C/c1nc(-c2ccc(F)cc2)cs1 [Compound of formula (14)] | >100 | >100 | >100 | >100 | >100
COc1ccc(/C=C/c2nc(C(C)(C)C)cs2)c(O)c1 [Compound of formula (21)] | >100 | >100 | >100 | >100 | >100
CC(C)(C)c1csc(/C=C/c2cccc(O)c2)n1 [Compound of formula (17)] | >100 | >100 | >100 | >100 | >100
COc1cc(O)ccc1/C=C/c1nc(C(C)(C)C)cs1 [Compound of formula (26)] | >100 | >100 | >100 | >100 | >100
Oc1cccc(/C=C/c2nc(-c3ccc(N4CCCC4)cc3)cs2)c1 [Compound of formula (28)] | >100 | >100 | >100 | >100 | >100
CC(C)(C)c1csc(/C=C/c2ccc(OCc3ccccc3)cc2O)n1 [Compound of formula (25)] | >100 | >100 | >100 | >100 | >100
COc1cc(/C=C/c2nc(-c3ccc(F)cc3)cs2)ccc1O [Compound of formula (8)] | >100 | >100 | >100 | >100 | >100

Continued, values first:

MIC values in ppm C. albicans (C. albicans) [ppm] | MIC values in ppm A. niger (A. niger) [ppm] | MIC values in ppm S. aureus (S. aureus) [ppm] | MIC values in ppm E. coli (E. coli) [ppm] | MIC values in ppm P. aeruginosa (P. aeruginosa) [ppm] | Compound
>100 | >100 | >100 | >100 | >100 | Oc1ccccc1/C=C/c1nc(-c2ccccc2)cs1 [Compound of formula (56)]
>100 | >100 | >100 | >100 | >100 | Cc1cc(/C=C/c2nc(-c3ccc(N4CCCC4)cc3)cs2)cc(C)c1O [Compound of formula (35)]
>100 | >100 | >100 | >100 | >100 | COc1ccc(/C=C/c2nc(-c3ccc(N4CCCC4)cc3)cs2)cc1O [Compound of formula (29)]
>100 | >100 | >100 | >100 | >100 | COc1cc(/C=C/c2nc(-c3ccc(N4CCCC4)cc3)cs2)cc(O)c1OC [Compound of formula (34)]
>100 | >100 | >100 | >100 | >100 | Cc1cccc(/C=C/c2nc(-c3ccccc3)cs2)c1O [Compound of formula (59)]
>100 | >100 | >100 | >100 | >100 | CCc1csc(/C=C/c2cccc(O)c2)n1 [Compound of formula (40)]
>100 | >100 | >100 | >100 | >100 | COc1cc(O)ccc1/C=C/c1nc(-c2ccc(N3CCCC3)cc2)cs1 [Compound of formula (38)]
